Assay [1] concerns isolated rings of the saphenous artery of rabbits. Briefly: Vessel-relaxing action in vitro, phenylephrin-induced contractions of isolated saphenous artery rings. The note with it: Oryctolagus cuniculus; contraction induced by 3×10^−8 g of phenylephrin/ml; concentration reducing control contraction by 50%. Further details: species or system rabbit. How it is done: (§1) The inhibition of the enzyme is investigated in an in vitro assay with recombinant Rho kinase II. The vessel-relaxing action is determined using phenylephrin-induced contractions of isolated rings of the saphenous artery of rabbits.
Vessel-Relaxing Action In Vitro
Individual 3-mm-wide rings of the isolated saphenous artery of rabbits are introduced into 5 ml organ baths with Krebs-Henseleit solution (37° C., gassed with carbogen). The vessel tone is monitored isometrically and registered. Contractions are induced by addition of 3×10^−8 g of phenylephrin/ml, which is washed out again after 4 min. After a number of control cycles, the rings are pre-incubated with the substance to be examined, with the dosage being increased for each further cycle, and the subsequent contraction is compared to the intensity of the last control contraction.

Assay [2] addresses T1, recombinant Rho kinase II (ROKα) (Homo sapiens, UniProt O75116).
T1 construct: purchased Upstate Biotechnology
Briefly: Inhibition of recombinant Rho kinase II (ROKα), 33P uptake into S6 substrate peptide. The format is biochemical. The note with it: 33P-ATP, S6 phosphate-acceptor peptide, 20 min at 37° C., vs solvent control. The procedure: as §1
Inhibition of Recombinant Rho Kinase II (ROKα)
The activity of Rho kinase is determined by the uptake of ^33P phosphate into a substrate peptide. To this end, commercially available Rho kinase II (Upstate Biotechnology) is pre-incubated at 37° C. in the presence of the S6 phosphate-acceptor peptide with the test substances or a solvent control for 10 min. The kinase reaction is then started by addition of ^33P-labelled ATP. After 20 min at 37° C., the reaction is stopped by addition of H3PO4. Aliquots are pipetted onto filters and the filters are washed and then covered with scintillator. The radioactivity of the ^33P-labelled peptides bound to the filter is measured in a Micro-Beta counter.

Experimental findings from patent US7737153B2, “Heteroaryloxy-substituted phenylaminopyrimidines as rho-kinase inhibitors” (Bayer Schering Pharma Aktiengesellschaft, priority 2002, dated 2010) are described below.

What is called IC50 is the concentration that gives 50% inhibition.

T1 sequence (O75116 whole entry): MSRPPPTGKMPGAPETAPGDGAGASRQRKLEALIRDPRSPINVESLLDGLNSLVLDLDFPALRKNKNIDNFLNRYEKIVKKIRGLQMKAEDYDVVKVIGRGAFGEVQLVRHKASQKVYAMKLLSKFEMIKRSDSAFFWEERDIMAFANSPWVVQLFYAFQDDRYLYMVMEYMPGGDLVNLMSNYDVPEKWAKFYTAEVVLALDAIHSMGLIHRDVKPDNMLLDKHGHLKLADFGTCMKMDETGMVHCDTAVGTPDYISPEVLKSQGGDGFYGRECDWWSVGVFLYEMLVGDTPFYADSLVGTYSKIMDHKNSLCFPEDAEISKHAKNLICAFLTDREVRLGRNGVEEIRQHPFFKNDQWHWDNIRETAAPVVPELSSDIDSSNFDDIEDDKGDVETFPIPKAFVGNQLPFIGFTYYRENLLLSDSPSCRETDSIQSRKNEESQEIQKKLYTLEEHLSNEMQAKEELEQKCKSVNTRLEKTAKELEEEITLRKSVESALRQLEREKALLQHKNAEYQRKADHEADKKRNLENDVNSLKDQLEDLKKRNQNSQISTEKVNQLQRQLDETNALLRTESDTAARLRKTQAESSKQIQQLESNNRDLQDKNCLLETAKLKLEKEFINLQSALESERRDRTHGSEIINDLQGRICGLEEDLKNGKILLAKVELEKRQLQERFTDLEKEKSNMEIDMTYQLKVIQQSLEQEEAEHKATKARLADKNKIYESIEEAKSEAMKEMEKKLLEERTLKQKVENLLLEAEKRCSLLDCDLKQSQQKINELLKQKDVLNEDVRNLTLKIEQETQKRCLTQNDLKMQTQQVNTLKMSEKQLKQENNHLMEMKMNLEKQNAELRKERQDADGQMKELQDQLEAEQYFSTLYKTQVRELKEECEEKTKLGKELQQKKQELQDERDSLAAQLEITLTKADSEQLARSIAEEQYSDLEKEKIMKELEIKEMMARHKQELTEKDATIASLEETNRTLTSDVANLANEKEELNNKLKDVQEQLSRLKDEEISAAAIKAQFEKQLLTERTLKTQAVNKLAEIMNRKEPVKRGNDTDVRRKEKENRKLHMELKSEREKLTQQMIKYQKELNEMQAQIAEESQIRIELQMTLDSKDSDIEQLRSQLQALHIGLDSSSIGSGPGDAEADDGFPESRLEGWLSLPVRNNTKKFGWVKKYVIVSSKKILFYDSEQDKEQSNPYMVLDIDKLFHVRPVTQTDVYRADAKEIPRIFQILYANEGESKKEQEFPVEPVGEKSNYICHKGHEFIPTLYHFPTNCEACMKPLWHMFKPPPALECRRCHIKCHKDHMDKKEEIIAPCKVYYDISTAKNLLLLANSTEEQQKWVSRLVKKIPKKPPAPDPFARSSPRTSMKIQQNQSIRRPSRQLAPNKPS

In assay [1], `Cc1n[nH]c2cccc(Oc3ccc(Nc4cc(-c5ccncc5)nc(N)n4)cc3F)c12` [Example 1, N-[2-Amino-6-(4-pyridinyl)-4-pyrimidinyl]-N-{3-fluoro-4-[(3-methyl-1H-indazol-4-yl)oxy]phenyl}amine] displayed an IC50 of 6800 nM.
As for `Nc1nc(Nc2ccc(Oc3ccc4[nH]ncc4c3)c(F)c2)cc(-c2ccncc2)n1` [Example 5, N-[2-Amino-6-(4-pyridinyl)-4-pyrimidinyl]-N-[3-fluoro-4-(1H-indazol-5-yloxy)-phenyl]amine], the IC50 came out at 20 nM in assay [2] and 1020 nM in assay [1].
Take `Nc1nc(Nc2ccc(Oc3ccc4[nH]ncc4c3)c(Cl)c2)cc(-c2ccncc2)n1` [Example 6]: the values for the IC50 in assay [2] and in assay [1] were 30 nM and 4330 nM, respectively.
`Nc1nc(Nc2ccc(Oc3ccc4cn[nH]c4c3)c(F)c2)cc(-c2ccncc2)n1` [Example 7] showed an IC50 in assay [1] of 6700 nM.
In the case of `Nc1nc(Nc2ccc(Oc3ccc4[nH]ncc4c3)c(F)c2)cc(N2C[C@H]3CCCN[C@H]3C2)n1` [Example 11, 6-[(4aR,7aR)-Octahydro-6H-pyrrolo[3,4-b]pyridin-6-yl]-N-4-[3-fluoro-4-(1H-indazol-5-yloxy)phenyl]-2,4-pyrimidinediamine], the IC50 in assay [2] amounted to 6 nM; in assay [1], 350 nM.
Regarding `Nc1nc(Nc2ccc(Oc3ccc4[nH]ncc4c3)c(F)c2)cc(N2C[C@@H]3CCCN[C@@H]3C2)n1` [Example 12], the IC50 in assay [2] stood at 55 nM; in assay [1], 2700 nM.
With `Nc1nc(Nc2ccc(Oc3ccc4[nH]ncc4c3)c(Cl)c2)cc(N2C[C@H]3CCCN[C@H]3C2)n1` [Example 13], the IC50 came to 9 nM in assay [2] and 2000 nM in assay [1].
For the compound `Nc1nc(Nc2ccc(Oc3ccc4[nH]ncc4c3)c(Cl)c2)cc(N[C@@H]2CCCC[C@H]2N)n1` [Example 15], the IC50 in assay [2] was 20 nM.
For `Nc1nc(Nc2ccc(Oc3ccc4[nH]ncc4c3)c(F)c2)cc(N[C@@H]2CCCC[C@H]2N)n1` [Example 16], the IC50 in assay [2] is 50 nM; in assay [1], 6900 nM.
As for `Nc1nc(Nc2ccc(Oc3ccc4[nH]ncc4c3)c(F)c2)cc(-c2ccccc2)n1` [Example 18, N-(2-Amino-6-phenyl-4-pyrimidinyl)-N-[3-fluoro-4-(1H-indazol-5-yloxy)phenyl]amine], the IC50 in assay [2] was determined as 43 nM.
For `CN(CCO)CC1CCN(c2cc(Nc3ccc(Oc4ccnc5[nH]ccc45)c(F)c3)nc(N)n2)C1` (centres unmarked) [Example 68], the IC50 was found to be 1 nM in assay [2] and 260 nM in assay [1].
Turning to `CC(C)(C)NCc1cc(Nc2ccc(Oc3ccnc4[nH]ccc34)c(F)c2)nc(N)n1` [Example 116], the midpoint of inhibition in assay [1], the IC50, lay at 150 nM.
Still for that read-out and setting: with `Nc1nc(CN2CCCCC2)cc(Nc2ccc(Oc3ccnc4[nH]ccc34)c(F)c2)n1` [Example 117, N^4-[3-Fluoro-4-(1H-pyrrolo[2,3-b]pyridin-4-yloxy)phenyl]-6-(piperidin-1-ylmethyl)-pyrimidine-2,4-diamine] the figure was 80 nM.
